Reference: patent US12358932B2, “Chemical compounds” (BORAH, INC., priority 2019, dated 2025)

Legend:
[1] = tested on: JAK; assay: Biochemical Kinase Assay Protocol (JAK); conditions: for JAK activity: compared to compounds of the disclosure; for Activity Note: JAK: compound list, + = noted target activity, number of * = preference
Protocol: Biochemical Kinase Assay Protocol (JAK, TrkA, Syk, Tyk2)
Reagent: Base Reaction buffer; 20 mM Hepes (pH 7.5), 10 mM MgCl2, 1 mM EGTA, 0.02% Brij™ 35, 0.02 mg/ml BSA, 0.1 mM Na3VO4, 2 mM DTT, 1% DMSO, where required cofactors are added individually to each kinase reaction.
• 1. Prepare indicated substrate in freshly prepared Base Reaction Buffer • 2. Deliver any required cofactors to the substrate solution above • 3. Deliver indicated kinase (JAK or TrkA) into the substrate solution and gently mix • 4. Deliver compounds in DMSO into the kinase reaction mixture by Acoustic technology (Echo550; nanoliter range), incubate for 20 minutes at room temperature • 5. Deliver 33P-ATP into the reaction mixture to initiate the reaction. • 6. Incubate kinase reaction for 2 hours at room temperature • 7. Reactions are spotted onto P81 ion exchange paper • 8. Detect kinase activity by filter-binding method. PDE4B Phosphodiesterase Assay

[2] = target: T1, Recombinant human PDE4B (Homo sapiens, UniProt Q07343); assay: PDE4B Phosphodiesterase Assay; format: biochemical; conditions: compared to compounds of the disclosure
T1 construct: aa 305-end; GST (N); made in house; host or cells: Sf9 insect cells (baculovirus)
T1 sequence (Q07343 305-736 limits assumed): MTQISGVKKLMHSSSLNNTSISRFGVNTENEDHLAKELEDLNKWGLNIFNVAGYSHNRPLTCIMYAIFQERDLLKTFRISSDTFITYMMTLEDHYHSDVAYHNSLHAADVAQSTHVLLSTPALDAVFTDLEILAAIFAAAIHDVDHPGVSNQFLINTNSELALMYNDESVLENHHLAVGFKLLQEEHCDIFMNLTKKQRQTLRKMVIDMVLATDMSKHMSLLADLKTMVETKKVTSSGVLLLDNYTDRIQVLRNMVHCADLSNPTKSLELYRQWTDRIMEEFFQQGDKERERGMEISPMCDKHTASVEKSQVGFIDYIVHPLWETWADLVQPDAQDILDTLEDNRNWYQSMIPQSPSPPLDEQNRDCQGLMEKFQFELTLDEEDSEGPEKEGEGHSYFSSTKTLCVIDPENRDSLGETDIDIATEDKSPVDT
Procedure, shortened: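 N-terminal GST-tagged human PDE4B (aa 305-end, Sf9-expressed) preincubated 10 min with compound in 10 mM Tris-HCl pH 7.5, 5 mM MgCl2, 0.01% Brij 35, 1 mM DTT, 1% DMSO, then 1 h at room temperature with 1 μM cAMP. AMP detected by Transcreener fluorescence polarization (Ex/Em 620/688), converted to nM product; % activity relative to DMSO.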

| PDE4 activity [2] | Activity Note: JAK [1] | Compound | JAK activity [1] |
| --- | --- | --- | --- |
| diminish in PDE4 activity |  | Cc1cnc(N(C)c2ccc3c(c2)COB3O)nc1NC1CCCC1 [B, 5-((4-(cyclopentylamino)-5-methylpyrimidin-2-yl)(methyl)amino)benzo[c][1,2]oxaborol-1(3H)-ol, reference compound] | no JAK activity or significantly decreased JAK activity |
| diminish in PDE4 activity |  | Cc1cnc(N(C)c2ccc3c(c2)COB3O)nc1OC1CCCCC1 [A, 5-((4-(cyclohexyloxy)-5-methylpyrimidin-2-yl)(methyl)amino)benzo[c][1,2]oxaborol-1(3H)-ol, reference compound] | no JAK activity or significantly decreased JAK activity |
|  | JAK+*** | OB1OCc2cc(Nc3ncc(Cl)c(NC4CCCC4)n3)cc(C(F)(F)F)c21 [5-((5-chloro-4-(cyclopentylamino)pyrimidin-2-yl)amino)-7-(trifluoromethyl)benzo[c][1,2]oxaborol-1(3H)-ol] |  |
|  | JAK+* | Cc1cnc(Nc2ccc3c(c2)B(O)OC3)nc1NC1CCN(C)CC1 [6-((5-methyl-4-((1-methylpiperidin-4-yl)amino)pyrimidin-2-yl)amino)benzo[c][1,2]oxaborol-1(3H)-ol] |  |
|  | JAK+** | CCc1cc(Nc2nccc(NC3CCCC3)n2)cc2c1B(O)OC2 [5-((4-(cyclopentylamino)pyrimidin-2-yl)amino)-7-ethylbenzo[c][1,2]oxaborol-1(3H)-ol] |  |
|  | JAK+*** | Cc1cnc(Nc2ccc3c(c2)CCOB3O)nc1NC1CCCC1 [6-((4-(cyclopentylamino)-5-methylpyrimidin-2-yl)amino)-3,4-dihydro-1H-benzo[c][1,2]oxaborinin-1-ol] |  |
|  | JAK+*** | CCc1cc(Nc2ncc(C)c(Nc3ccccc3)n2)cc2c1B(O)OC2 [7-ethyl-5-((5-methyl-4-(phenylamino)pyrimidin-2-yl)amino)benzo[c][1,2]oxaborol-1(3H)-ol] |  |
|  | JAK+*** | CCC(CC)Nc1nc(Nc2ccc3c(c2)C(C)(C)OB3O)ncc1C [3,3-dimethyl-5-((5-methyl-4-(pentan-3-ylamino)pyrimidin-2-yl)amino)benzo[c][1,2]oxaborol-1(3H)-ol] |  |
|  | JAK+*** | Cc1cnc(Nc2cc(Cl)c3c(c2)COB3O)nc1Nc1ccccc1 [7-chloro-5-((5-methyl-4-(phenylamino)pyrimidin-2-yl)amino)benzo[c][1,2]oxaborol-1(3H)-ol] |  |
|  | JAK+*** | Cc1cnc(Nc2ccc3c(c2)C(C)OB3O)nc1NC1CCCC1 (centres unmarked) [5-((4-(cyclopentylamino)-5-methylpyrimidin-2-yl)amino)-3-methylbenzo[c][1,2]oxaborol-1(3H)-ol] |  |
|  | JAK+* | CCCNc1nc(Nc2ccc3c(c2)B(O)OC3)ncc1I [6-((5-iodo-4-(propylamino)pyrimidin-2-yl)amino)benzo[c][1,2]oxaborol-1(3H)-ol] |  |
|  | JAK+*** | CCC(CC)Nc1nc(Nc2ccc3c(c2)C(C)OB3O)ncc1C (centres unmarked) [3-methyl-5-((5-methyl-4-(pentan-3-ylamino)pyrimidin-2-yl)amino)benzo[c][1,2]oxaborol-1(3H)-ol] |  |
|  | JAK+* | Cc1cnc(Nc2ccc3c(c2F)B(O)OC3)nc1Nc1cccc(S(C)(=O)=O)c1 [7-fluoro-6-((5-methyl-4-((3-(methylsulfonyl)phenyl)amino)pyrimidin-2-yl)amino)benzo[c][1,2]oxaborol-1(3H)-ol] |  |
|  | JAK+*** | OB1OCc2cc(Nc3ncc(Cl)c(NC4CCCC4)n3)cc(Cl)c21 [7-chloro-5-((5-chloro-4-(cyclopentylamino)pyrimidin-2-yl)amino)benzo[c][1,2]oxaborol-1(3H)-ol] |  |
|  | JAK+*** | Cc1cnc(Nc2cc(Cl)c3c(c2)C(C)(C)OB3O)nc1Nc1ccccc1 [7-chloro-3,3-dimethyl-5-((5-methyl-4-(phenylamino)pyrimidin-2-yl)amino)benzo[c][1,2]oxaborol-1(3H)-ol] |  |
|  | JAK+** | COc1cc(Nc2ncc(C)c(SC)n2)cc2c1B(O)OC2 [7-methoxy-5-((5-methyl-4-(methylthio)pyrimidin-2-yl)amino)benzo[c][1,2]oxaborol-1(3H)-ol] |  |

| Compound | PDE4 activity [2] | Activity Note: JAK [1] | JAK activity [1] |
| --- | --- | --- | --- |
| CCC(CC)Nc1nc(Nc2cc(C)c3c(c2)COB3O)ncc1C [7-methyl-5-((5-methyl-4-(pentan-3-ylamino)pyrimidin-2-yl)amino)benzo[c][1,2]oxaborol-1(3H)-ol] |  | JAK+*** |  |
| Cc1cnc(Nc2ccc3c(c2)C(C)(C)OB3O)nc1NC1CCCC1 [5-((4-(cyclopentylamino)-5-methylpyrimidin-2-yl)amino)-3,3-dimethylbenzo[c][1,2]oxaborol-1(3H)-ol] |  | JAK+*** |  |
